According to PubChem BioAssay AID2060491 (Molecular Pharmacology Branch, DTP, NCI, 2025):

System: 857933-349-R-J2-PDC complex spheroids, viability
Test: Anticancer human tumor 857933-349-R-J2-PDC patient-derived colon adenocarcinoma cell line growth inhibition [GQUAD]
Conditions: for IC50: curve of first compound; for viability, T/C: stronger effect = lower value
Source text: DNA G-quadruplex Stabilizer Agents in Combinations in Complex Spheroids
A high-throughput screen of multi-cell type tumor spheroids was designed to identify active combinations of DNA G-quadruplex stabilizer agents and targeted small molecules. Complex spheroids include a stromal component modeled by human endothelial cells (HUVEC) and fibroblasts modeled by human mesenchymal stem cells (MSCs). The concentration ranges selected for each drug and investigational agent were based upon clinically achievable concentrations if the clinical Cmax of the agent was known.
Compounds. The drugs and investigational agents: pidnarulex (CX-5461; NSC782164), APTO-253 (NSC789042), BRACO-19 (NSC847499), peposertib (NSC802822), ceralasertib (NSC780249), elimusertib (NSC800525), camonsertib (NSC841442), AZD-1390 (NSC803789), olaparib (NSC753686), talazoparib (NSC767125), ART-558 (NSC835418), sotorasib (NSC818433), MRTX-1133 (NSC836407), SN-38 (NSC673596), topotecan (NSC609699), etoposide (NSC141540), doxorubicin (NSC123127), gemcitabine (NSC613327), 5-fluorouracil (NSC19893), paclitaxel (NSC125973), vemurafenib (NSC761431), panobinostat (NSC761190), R-306465 (JNJ-16241199; NSC773264), adavosertib (NSC754352), TP-3654 (NSC805149), carboplatin (NSC241240), KSQ-4279 (NSC840948), and staurosporine (NSC755774) were obtained from the National Cancer Institute (NCI) Developmental Therapeutics Program Chemical Repository (34). The FDA-approved anticancer drug set is available from the NCI Developmental Therapeutics Program. […] The stock solutions were prepared in dimethyl sulfoxide (DMSO, Sigma-Aldrich, St. Louis, MO, cat. D2650) at 800-fold the tested concentration and stored at -70 degrees C prior to their use. All drugs and investigational agents were tested over a range starting from a high concentration at or near the clinical Cmax and decreasing in half-log increments. If the clinical Cmax for an agent had not been determined, the highest concentration tested was 10 microM.
2.3 Cell Culture. All cells were maintained in an incubator at 37 degrees C and 5% CO2 with 95% humidity. The PDC lines were cultured according to standard operating procedures established by the NCI PDMR. All PDCs were thawed and cultured in Matrigel-coated flasks prepared with a working solution of 1X Ham's F-12 nutrient mix, without supplementation (Invitrogen, cat. 11765054), 100 U/mL penicillin-streptomycin (Invitrogen, cat. 15140122), and 2.5% Matrigel (Corning Inc., cat. 354248) for the first three passages. The 857933-349-R-J2-PDC line was cultured in 6C/Colon 1B media, which includes advanced DMEM/F-12 (Thermo Fisher Scientific, cat. 12634028), 10 mM HEPES (Thermo Fisher Scientific, cat. 15630080), 1X GlutaMAX supplement (Thermo Fisher Scientific, cat. 35050061), 0.1 mg/mL primocin (InvivoGen, cat. ant-pm-2), 10% defined fetal bovine serum, heat inactivated (HyClone Laboratories Inc., cat. SH30070.03HI), 50% L-WRN conditioned media (ATCC, cat. CRL-3276), 1.25 mM N-Acetyl-L-cysteine (Sigma-Aldrich, cat. A9165), 10 mM nicotinamide (Sigma-Aldrich, cat. N0636), 1X B-27 supplement (Thermo Fisher Scientific, cat. 17504044), 1X N-2 supplement (Thermo Fisher Scientific, cat. 17502048), 10 microM Y-27632 dihydrochloride (Tocris Bioscience, cat. 1254), and 50 ng/mL human EGF recombinant protein (Thermo Fisher Scientific, cat. PHG0311). The 485176-168-R4-J1-PDC line was cultured in Panc media, which includes all 6C/Colon 1B media components plus 100 ng/mL human FGF-10 (Thermo Fisher Scientific, cat. 100-26), 500 nM SB-431542 (Selleckchem, cat. S1067), and gastrin (Tocris, cat. 3006).
[…]

[1] = second compound 0.0316 µM, first compound 0.0316 µM
[2] = second compound 0.0316 µM, first compound 0.1 µM
[3] = second compound 0.0316 µM, first compound 0.316 µM
[4] = second compound 0.0316 µM, first compound 1 µM
[5] = second compound 0.0316 µM, first compound 3.16 µM
[6] = second compound 0.0316 µM, first compound 10 µM
[7] = second compound 0.1 µM, first compound 0.0316 µM
[8] = second compound 0.1 µM, first compound 0.1 µM
[9] = second compound 0.1 µM, first compound 0.316 µM
[10] = second compound 0.1 µM, first compound 1 µM
[11] = second compound 0.1 µM, first compound 3.16 µM
[12] = second compound 0.1 µM, first compound 10 µM
[13] = second compound 0.316 µM, first compound 0.0316 µM
[14] = second compound 0.316 µM, first compound 0.1 µM
[15] = second compound 0.316 µM, first compound 0.316 µM
[16] = second compound 0.316 µM, first compound 1 µM
[17] = second compound 0.316 µM, first compound 3.16 µM
[18] = second compound 0.316 µM, first compound 10 µM
[19] = second compound 1 µM, first compound 0.0316 µM
[20] = second compound 1 µM, first compound 0.1 µM
[21] = second compound 1 µM, first compound 0.316 µM
[22] = second compound 1 µM, first compound 1 µM
[23] = second compound 1 µM, first compound 3.16 µM
[24] = second compound 1 µM, first compound 10 µM
[25] = second compound 3.16 µM, first compound 0.0316 µM
[26] = second compound 3.16 µM, first compound 0.1 µM
[27] = second compound 3.16 µM, first compound 0.316 µM
[28] = second compound 3.16 µM, first compound 1 µM
[29] = second compound 3.16 µM, first compound 3.16 µM
[30] = second compound 3.16 µM, first compound 10 µM
[31] = second compound 10 µM, first compound 0.0316 µM
[32] = second compound 10 µM, first compound 0.1 µM
[33] = second compound 10 µM, first compound 0.316 µM
[34] = second compound 10 µM, first compound 1 µM
[35] = second compound 10 µM, first compound 3.16 µM
[36] = second compound 10 µM, first compound 10 µM
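Further: spheroids exposed to compounds for one week before readout.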
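Wherever viability, T/C is given: percent viability relative to vehicle DMSO wells taken as 100%.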

`C=CCn1c(=O)c2cnc(Nc3ccc(N4CCN(C)CC4)cc3)nc2n1-c1cccc(C(C)(C)O)n1` + Cc1[nH]c2ccc(F)cc2c1-c1nc2c3cccnc3c3ncccc3c2[nH]1 gave an IC50 (second compound 0.0316 µM) of 1930 nM, an IC50 (second compound 0.1 µM) of 1920 nM and an IC50 (second compound 0.316 µM) of 1470 nM. It also gave an IC50 (second compound 1 µM) of 1570 nM, an IC50 (second compound 3.16 µM) of 960 nM and an IC50 (second compound 10 µM) of 1390 nM. The viability, T/C [1] was 107%, the viability, T/C [2] was 99.1% and the viability, T/C [3] was 94.5%. The viability, T/C [4] was 77%, the viability, T/C [5] was 28.8% and the viability, T/C [6] was 27.8%. It also gave a viability, T/C [7] of 105%, a viability, T/C [8] of 104% and a viability, T/C [9] of 97.2%. It also gave a viability, T/C [10] of 81.5%, a viability, T/C [11] of 25.4% and a viability, T/C [12] of 24%. It also gave a viability, T/C [13] of 107%, a viability, T/C [14] of 98.1% and a viability, T/C [15] of 94%. The viability, T/C [16] was 62.7%, the viability, T/C [17] was 24.2% and the viability, T/C [18] was 26%. It also gave a viability, T/C [19] of 98.5%, a viability, T/C [20] of 86.1% and a viability, T/C [21] of 86%. For the same compound, the viability, T/C [22] was 63.4%, the viability, T/C [23] was 29.6% and the viability, T/C [24] was 23.9%. The viability, T/C [25] was 94.8%, the viability, T/C [26] was 76% and the viability, T/C [27] was 78.1%. It also gave a viability, T/C [28] of 48.7%, a viability, T/C [29] of 27.8% and a viability, T/C [30] of 24.5%. The viability, T/C [31] was 86.1%, the viability, T/C [32] was 77.8% and the viability, T/C [33] was 75.3%. It also gave a viability, T/C [34] of 58.7%, a viability, T/C [35] of 30% and a viability, T/C [36] of 24.9%.
Work on `C=CCn1c(=O)c2cnc(Nc3ccc(N4CCN(C)CC4)cc3)nc2n1-c1cccc(C(C)(C)O)n1` + CN(C)c1ccc(Nc2c3ccc(NC(=O)CCN4CCCC4)cc3nc3cc(NC(=O)CCN4CCCC4)ccc23)cc1 yielded an IC50 (second compound 0.0316 µM) of 1840 nM, an IC50 (second compound 0.1 µM) of 1650 nM and an IC50 (second compound 0.316 µM) of 1510 nM. For the same compound, the IC50 (second compound 1 µM) was 1570 nM, the IC50 (second compound 3.16 µM) was 1190 nM and the IC50 (second compound 10 µM) was 756 nM. It also gave a viability, T/C [1] of 102%, a viability, T/C [2] of 102% and a viability, T/C [3] of 96.6%. For the same compound, the viability, T/C [4] was 75.7%, the viability, T/C [5] was 26.1% and the viability, T/C [6] was 27.9%. The viability, T/C [7] was 101%, the viability, T/C [8] was 99.4% and the viability, T/C [9] was 99.2%. The viability, T/C [10] was 68.6%, the viability, T/C [11] was 24.3% and the viability, T/C [12] was 27.3%. It also gave a viability, T/C [13] of 97.7%, a viability, T/C [14] of 95.3% and a viability, T/C [15] of 101%. It also gave a viability, T/C [16] of 63.1%, a viability, T/C [17] of 28.4% and a viability, T/C [18] of 24.9%. It also gave a viability, T/C [19] of 94.3%, a viability, T/C [20] of 81.6% and a viability, T/C [21] of 87.8%. For the same compound, the viability, T/C [22] was 60.8%, the viability, T/C [23] was 32.5% and the viability, T/C [24] was 33.8%. For the same compound, the viability, T/C [25] was 88%, the viability, T/C [26] was 73.5% and the viability, T/C [27] was 75.5%. It also gave a viability, T/C [28] of 53.5%, a viability, T/C [29] of 31.8% and a viability, T/C [30] of 28.6%. It also gave a viability, T/C [31] of 62.1%, a viability, T/C [32] of 62.6% and a viability, T/C [33] of 57.6%. For the same compound, the viability, T/C [34] was 47.7%, the viability, T/C [35] was 32.2% and the viability, T/C [36] was 25.2%.
In the case of `COc1cccc2c1C(=O)c1c(O)c3c(c(O)c1C2=O)CC(O)(C(=O)CO)CC3OC1CC(N)C(O)C(C)O1` (stereo unspecified) + CN(C)c1ccc(Nc2c3ccc(NC(=O)CCN4CCCC4)cc3nc3cc(NC(=O)CCN4CCCC4)ccc23)cc1, the IC50 (second compound 0.0316 µM) is reported as 917 nM, the IC50 (second compound 0.1 µM) is reported as 828 nM and the IC50 (second compound 0.316 µM) is reported as 663 nM. It also gave an IC50 (second compound 1 µM) of 711 nM, an IC50 (second compound 3.16 µM) of 739 nM and an IC50 (second compound 10 µM) of 978 nM. For the same compound, the viability, T/C [1] was 100%, the viability, T/C [2] was 97.1% and the viability, T/C [3] was 76.7%. It also gave a viability, T/C [4] of 52.2%, a viability, T/C [5] of 8.8% and a viability, T/C [6] of 0.64%. For the same compound, the viability, T/C [7] was 99.2%, the viability, T/C [8] was 92.8% and the viability, T/C [9] was 79.3%. The viability, T/C [10] was 45.4%, the viability, T/C [11] was 9.85% and the viability, T/C [12] was 0.72%. It also gave a viability, T/C [13] of 102%, a viability, T/C [14] of 95.8% and a viability, T/C [15] of 72.7%. For the same compound, the viability, T/C [16] was 37.3%, the viability, T/C [17] was 10.8% and the viability, T/C [18] was 0.64%. For the same compound, the viability, T/C [19] was 103%, the viability, T/C [20] was 86% and the viability, T/C [21] was 76.2%. For the same compound, the viability, T/C [22] was 39.6%, the viability, T/C [23] was 12.5% and the viability, T/C [24] was 0.68%. For the same compound, the viability, T/C [25] was 91.6%, the viability, T/C [26] was 76.8% and the viability, T/C [27] was 73.7%. For the same compound, the viability, T/C [28] was 42.6%, the viability, T/C [29] was 11.9% and the viability, T/C [30] was 0.97%. The viability, T/C [31] was 70.7%, the viability, T/C [32] was 73.4% and the viability, T/C [33] was 67.1%. For the same compound, the viability, T/C [34] was 50.1%, the viability, T/C [35] was 9.58% and the viability, T/C [36] was 1.5%.
